Data: patent US8575145B2, “Triazolopyridine compounds as PIM kinase inhibitors” (Array BioPharma Inc., priority 2008, dated 2013)
Counter-ions that a name gives are not always drawn. Like-named read-outs stand apart in the source and are kept apart here.

Experiments:
recombinant rat PIM-3 = recombinant rat PIM-3 (Rattus norvegicus (Rat), UniProt O70444); test: PIM-3 Enzyme Assay; conditions: read-out: PIM-3 IC50, 30 μM ATP, 0.5 nM PIM-3
[1] = system: PC3 (Androgen independent prostate cancer); test: Cellular Proliferation Assay, cell line A; type: cell-based; conditions: PC3, 72 hours, CelltiterBlue; read-out: Cell Line A antiproliferative IC50
Procedure: (§1) The assay for determination of the antiproliferative activity of multiple Pim inhibitors in the JAK2-driven cell lines was conducted as follows. Cells were plated out to 96-well plates at an initial density of 10,000 cells/well in 95 pt. Compounds were prepared at […] in DMSO by conducting 3-fold serial dilutions to give a 10-point dosing curve having a high dose of 1000 μM. Aliquots (5 μt) of these dilutions were then transferred to the appropriate wells of the 96-well plates containing cells to yield a final DMSO concentration of 0.5%. The cells were then incubated with compound for 72 hours at 37° C., 5% CO2. CelltiterBlue reagent (Promega, Catalog #: G8080) was then added (20 μL/well) and incubated at 37° C., 5% CO2 for 1-8 hours depending on the cell line being analyzed. The plate was then quantified employing a fluorescence plate reader (Model: Gemini [Molecular Devices]; Settings: 560 nm (Ex)/590 nm (Em) 570 nm (cut-off) [CellTiter Blue Assay].
(§2) The values for each well were then converted to a percent of untreated control (POC). These POC values were then plotted as a function of compound concentration. A 4-parameter curve-fit analysis was performed for each compound dilution and an IC50 value was calculated from this curve.
(§3) Cell lines • A: PC3 (Androgen independent prostate cancer) • B: K562 (Ph+chronic myelogenous leukemia) • C: MV4-11 (Acute myelogenous leukemia) • D: BxPC3 (Pancreatic Cancer) • E: HepG2 (Hepatocellular Carcinoma) • F: BaF3 (Mouse pro-B-cell line) • G: BaF3 TEL-JAK2 (Mouse pro-B-cell transformed with TEL-JAK2 fusion) • H: BaF2 BCR-Ab1 (Mouse pro-B-cell transformed with BCR-Ab1 fusion)

[2] = system: K562 (Ph+chronic myelogenous leukemia); test: Cellular Proliferation Assay, cell line B; type: cell-based; conditions: Homo sapiens; K562, 72 hours, CelltiterBlue; read-out: Cell Line B antiproliferative IC50
Procedure: as §1, §2, §3

[3] = biological target: GST-tagged recombinant full-length human PIM-2 (Homo sapiens (Human), UniProt Q9P1W9); test: PIM-2 Enzyme Assay; conditions: read-out: PIM-2 IC50
Chain of GST-tagged recombinant full-length human PIM-2 (Q9P1W9 whole entry, the tested form may be a part): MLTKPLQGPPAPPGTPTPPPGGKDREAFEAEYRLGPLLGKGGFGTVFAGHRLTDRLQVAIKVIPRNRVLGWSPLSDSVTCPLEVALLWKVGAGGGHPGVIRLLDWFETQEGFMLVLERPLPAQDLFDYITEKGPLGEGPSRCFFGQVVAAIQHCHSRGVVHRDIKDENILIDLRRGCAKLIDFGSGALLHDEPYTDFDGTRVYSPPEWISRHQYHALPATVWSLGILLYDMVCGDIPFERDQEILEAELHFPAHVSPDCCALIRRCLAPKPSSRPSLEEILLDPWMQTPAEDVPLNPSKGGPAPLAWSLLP

[4] = system: BaF2 BCR-Ab1 (Mouse pro-B-cell transformed with BCR-Ab1 fusion); test: Cellular Proliferation Assay, cell line H; type: cell-based; conditions: BaF2 BCR-Ab1, 72 hours, CelltiterBlue, read-out: Cell Line H antiproliferative IC50
Procedure: as §1, §2, §3

[5] = system: BaF3 (Mouse pro-B-cell line); test: Cellular Proliferation Assay, cell line F; type: cell-based; conditions: BaF3, 72 hours, CelltiterBlue, read-out: Cell Line F antiproliferative IC50
Procedure: as §1, §2, §3

PIM-1 = PIM-1 (Homo sapiens (Human), UniProt P11309); test: PIM-1 Enzyme Assay; type: biochemical
Chain of PIM-1 (P11309 whole entry, species assumed): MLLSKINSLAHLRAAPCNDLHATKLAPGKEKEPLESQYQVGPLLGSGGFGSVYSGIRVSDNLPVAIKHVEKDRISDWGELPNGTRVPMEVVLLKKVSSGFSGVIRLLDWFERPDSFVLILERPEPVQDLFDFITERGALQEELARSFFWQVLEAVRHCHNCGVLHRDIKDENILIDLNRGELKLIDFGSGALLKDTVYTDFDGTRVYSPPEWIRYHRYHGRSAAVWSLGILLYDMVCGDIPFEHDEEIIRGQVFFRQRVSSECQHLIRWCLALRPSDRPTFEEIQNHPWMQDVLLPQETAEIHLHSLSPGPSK
Summary of the method: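 Radiometric kinase assay in 20 mM K+MOPS pH 7.4, 10 mM MgCl2, 0.005% Tween-20, 1 mM DTT, 2% DMSO final; 60 min at 22° C, stopped with H3PO4, product captured on P81 filter and counted by scintillation. IC50 from 4-parameter logistic fit of percent of control.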

[6] = system: BaF3 TEL-JAK2 (Mouse pro-B-cell transformed with TEL-JAK2 fusion); test: Cellular Proliferation Assay, cell line G; type: cell-based; conditions: BaF3 TEL-JAK2, 72 hours, CelltiterBlue, read-out: Cell Line G antiproliferative IC50
Procedure: as §1, §2, §3

[7] = system: BxPC3 (Pancreatic Cancer); test: Cellular Proliferation Assay, cell line D; type: cell-based; conditions: Homo sapiens, BXPC-3; BxPC3, 72 hours, CelltiterBlue; read-out: Cell Line D antiproliferative IC50
Procedure: as §1, §2, §3

[8] = system: HepG2 (Hepatocellular Carcinoma); test: Cellular Proliferation Assay, cell line E; type: cell-based; conditions: Homo sapiens; HepG2, 72 hours, CelltiterBlue; read-out: Cell Line E antiproliferative IC50
Procedure: as §1, §2, §3

IC50 (recombinant rat PIM-3) [µM] | IC50 ([3]; 4 μM ATP, […] PIM-2) [µM] | IC50 (PIM-1; 35 μM ATP, 0.25 nM PIM-1) [µM] | SMILES | other results
0.0044 | 1.11 | 0.0016 | c1cc(NC2CCNCC2)c2nc(-c3nnc4ccccn34)ccc2c1 [Example 1, 2-([1,2,4]Triazolo[4,3-a]pyridin-3-yl)-N-(piperidin-4-yl)quinolin-8-amine di-trifloroacetate] | IC50 [1]: < 10 µM; IC50 [2]: > 10 µM; IC50 [4]: < 10 µM; IC50 [5]: < 2 µM; IC50 [6]: < 2 µM
0.003 | 0.134 | – | N[C@H]1CC[C@H](Oc2cccc3ccc(-c4nnc5ccccn45)nc23)CC1 [Example 17, (trans)-4-(2-([1,2,4]Triazolo[4,3-a]pyridin-3-yl)quinolin-8-yloxy)cyclohexanamine] | IC50 [1]: < 2 µM; IC50 [2]: < 10 µM; IC50 [7]: < 10 µM; IC50 [4]: < 2 µM; IC50 [5]: < 2 µM; IC50 [6]: < 2 µM; IC50 [8]: < 10 µM
0.465 | 10 | 0.178 | CN(C)C(=O)[C@@H]1C[C@@H](Oc2cccc3ccc(-c4nnc5ccccn45)nc23)CCN1 [Example 54, (2S,4S)-4-(2-([1,2,4]triazolo[4,3-a]pyridin-3-yl)quinolin-8-yloxy)-N,N-dimethylpiperidine-2-carboxamide dihydrochloride] | –
0.728 | 10 | 0.132 | c1cc(OC[C@@H]2CCCN2)c2nc(-c3nnc4ccccn34)ccc2c1 [Example 61, (S)-2-([1,2,4]triazolo[4,3-a]pyridin-3-yl)-8-(pyrrolidin-2-ylmethoxy)quinoline] | –
0.262 | 1.72 | 0.034 | OCC(O)COc1cccc2ccc(-c3nnc4ccccn34)nc12 (centres unmarked) [Example 62, 3-(2-([1,2,4]triazolo[4,3-a]pyridin-3-yl)quinolin-8-yloxy)propane-1,2-diol] | –
0.003 | 0.069 | 0.00095 | CC1(COc2cccc3ccc(-c4nnc5ccccn45)nc23)CCNCC1 [Example 67, 2-([1,2,4]triazolo[4,3-a]pyridin-3-yl)-8-((4-methylpiperidin-4-yl)methoxy)quinoline dihydrochloride] | –
0.01 | 0.126 | 0.0013 | CCC1(COc2cccc3ccc(-c4nnc5ccccn45)nc23)CCNCC1 [Example 68, 2-([1,2,4]triazolo[4,3-a]pyridin-3-yl)-8-((4-ethylpiperidin-4-yl)methoxy)quinoline dihydrochloride] | –

The next lines start with the compound.

SMILES | IC50 (recombinant rat PIM-3) [µM] | IC50 ([3]; 4 μM ATP, […] PIM-2) [µM] | IC50 (PIM-1; 35 μM ATP, 0.25 nM PIM-1) [µM] | other results
NC(=O)N1CCC(Oc2cccc3ccc(-c4nnc5ccccn45)nc23)CC1 [Example 40, 4-(2-([1,2,4]triazolo[4,3-a]pyridin-3-yl)quinolin-8-yloxy)piperidine-1-carboxamide] | 0.046 | 1.28 | 0.012 | –
FC1CNCCCC1Oc1cccc2ccc(-c3nnc4ccccn34)nc12 (centres unmarked) [Example 51, 2-([1,2,4]triazolo[4,3-a]pyridin-3-yl)-8-(3-fluoroazepan-4-yloxy)quinoline dihydrochloride] | 0.01 | – | 0.003 | IC50 [3]: 0.406 µM
c1cc(OC2CCCNCC2)c2nc(-c3nnc4ccccn34)ccc2c1 (centres unmarked) [Example 52, 2-([1,2,4]triazolo[4,3-a]pyridin-3-yl)-8-(azepan-4-yloxy)quinoline dihydrochloride] | – | – | – | IC50 (recombinant rat PIM-3; dihydrochloride): 0.004 µM; IC50 ([3]; 4 μM ATP, […] PIM-2, dihydrochloride): 0.11 µM; IC50 (PIM-1; 35 μM ATP, 0.25 nM PIM-1, dihydrochloride): 0.002 µM
CON(C)C(=O)[C@@H]1C[C@@H](Oc2cccc3ccc(-c4nnc5ccccn45)nc23)CCN1 [Example 55, (2S,4S)-4-(2-([1,2,4]triazolo[4,3-a]pyridin-3-yl)quinolin-8-yloxy)-N-methoxy-N-methylpiperidine-2-carboxamide dihydrochloride] | 0.222 | 10 | 0.07 | –
OC[C@@H]1C[C@@H](Oc2cccc3ccc(-c4nnc5ccccn45)nc23)CCN1 [Example 56, ((2S,4S)-4-(2-([1,2,4]triazolo[4,3-a]pyridin-3-yl)quinolin-8-yloxy)piperidin-2-yl)methanol dihydrochloride] | 0.024 | 0.427 | – | IC50 (PIM-1): 0.009 µM
CC(C)(CN)COc1cccc2ccc(-c3nnc4ccc(C5CC5)cn34)nc12 [Example 64, 3-(2-(6-cyclopropyl-[1,2,4]triazolo[4,3-a]pyridin-3-yl)quinolin-8-yloxy)-2,2-dimethylpropan-1-amine dihydrochloride] | 0.005 | – | – | IC50 [3]: 0.323 µM; IC50 (PIM-1): 0.00064 µM
FC1(COc2cccc3ccc(-c4nnc5ccccn45)nc23)CCNCC1 [Example 66, 2-([1,2,4]triazolo[4,3-a]pyridin-3-yl)-8-((4-fluoropiperidin-4-yl)methoxy)quinoline dihydrochloride] | 0.003 | – | – | IC50 [3]: 0.052 µM; IC50 (PIM-1): 0.0008 µM
OC1(COc2cccc3ccc(-c4nnc5ccccn45)nc23)CCN(Cc2ccccc2)CC1 [Example 71, 4-((2-([1,2,4]triazolo[4,3-a]pyridin-3-yl)quinolin-8-yloxy)methyl)-1-benzylpiperidin-4-ol] | 0.112 | 10 | 0.016 | –
COC1(COc2cccc3ccc(-c4nnc5ccccn45)nc23)CCNCC1 [Example 73, 2-([1,2,4]triazolo[4,3-a]pyridin-3-yl)-8-((4-methoxypiperidin-4-yl)methoxy)quinoline bis(trifluoroacetate)] | 0.005 | 0.079 | – | IC50 (PIM-1): 0.00096 µM
CC1(COc2cccc3ccc(-c4nnc5ccccn45)nc23)CCN(CCO)CC1 [Example 86, dihydrochloride] | 0.01 | – | 0.003 | IC50 [3]: 0.142 µM
CC(C)(COc1cc(F)cc2ccc(-c3nnc4ccccn34)nc12)[C@@H](O)CO [Example 112, (R)-4-(2-([1,2,4]triazolo[4,3-a]pyridin-3-yl)-6-fluoroquinolin-8-yloxy)-3,3-dimethylbutane-1,2-diol dihydrochloride] | 0.0101 | 0.3 | 0.0033 | –
